Reference: US20250255847A1, “[…]s: Novel Drugs for Triple Negative Breast Cancer” (SIMMARON RSEARCH INC, priority 2024, published 2025)

Test system: TNBC tumor parenchyma
Experiment: Histology, IHC and TUNEL of PDX tumor tissue
Type: in vivo, mouse
Settings: for H&E staining: size and color intensities of tumor cells: 2 mg/Kg Bwt i.p.; for apoptosis in TNBC tumor (TUNEL staining): FIG. 14; for Ki-67 immunoreactivity in tumor parenchyma: p<0.0001 vs control
Protocol: FIG. 13 illustrates an embodiment of the present invention and illustrates the effects of SIM-1 and SIM-2 on the growth arrest of TNBC tumors. […] The higher magnification images were given below. (B) Area of 50 randomly selected cells (10 different images from n=5 mice/group) from three different groups were measured using polygon tool of ImageJ software and then the scatter histogram analysis was performed using GraphPad Prism 10 statistical software package. The significance of mean between groups (***p<0.001 versus control) was calculated by one-way ANOVA analysis (effector: treatment). (C) IHC staining of cell growth marker Ki-67 in vehicle-, SIM-1-, and SIM-2-treated tumors represents the cell growth property of tumor cells. […] Both hematoxylin-ir nuclei (total cells) and Ki-67-ir cells were counted in n=15 images per group, converted in percent scale, and then plotted as scatter histogram. ****p<0.0001 vs. control as derived by one-way ANOVA. (E) IHC staining of cell proliferation marker PCNA in three different groups. (F) Scatter histogram analysis of […] counted from n=15 images per group and then plotted as percent scale. […] (G) A gene array of 84 genes in a validated human breast cancer gene array (RT^2 Profiler™ PCR array; Cat #PAHS-131ZA; Qiagen) was conducted in cDNA samples extracted from TNBC tumors of vehicle, SIM-1- and SIM-2-treated (n=3) groups. The resultant gene expressions were converted in log scale and then compared with the vehicle in (G) SIM-1 and (H) SIM-2 treated groups as shown in scatter plots. […] (I) Validation of gene expressions of CCND1, CCND2, CCNE1, CDK2 genes were performed by real-time PCR analysis. (J) Upregulations of CDKN1A, and CDKN2A in SIM-1- and SIM-2-treated groups were validated by real-time PCR analyses. were Significance of mean calculated by one-way ANOVA resulted […] versus respective vehicle-groups. The results are confirmed after three different experiments.
(A) TUNEL staining to monitor apoptosis of tumor cells among all groups followed by (B) counting of TUNEL-ir cells from n=15 images per group and then plotting a scatter histogram analysis. ****p<0.0001 vs. control as derived by one-way ANOVA. (C) A protein array of 35 different apoptosis-related proteins (Human apoptosis array; Cat #ARY009; R&D Systems) was conducted in the tumor tissue extracts of three different groups. Red, purple, and green squares represent the expressions of Bad, Bax, and Cytochrome C proteins respectively. Black enclosures represent the positive controls. (D) Heatmap analysis summarizes the expressions of breast cancer 84 validated breast cancer-associated genes (RT^2 Profiler™ PCR array; Cat #PAHS-131ZA; Qiagen). These genes critically regulate the growth and apoptosis of breast cancer cells. The details of the genes can be found here (geneglobe.qiagen.com/us/product-groups/rt2-profiler-pcr-arravs/PAHS-131Z). Scatter plot analyses in FIG. 13G and FIG. 13H was performed to compare the relative expressions of apoptotic genes and growth suppressive genes between the vehicle- and SIM-1-treated as well as the vehicle- and SIM-2-treated groups.
Immunohistochemical (IHC) analyses. Tumor tissues were embedded in paraffin, cut at a thickness of 5 μm in Leica microtome, attached to a charged slide, dried in a dry bath at 37° C. for at least 48 hrs., and then progressed for IHC analysis. The IHC analysis was performed where, briefly, sections were deparaffinized by xylene and rehydrated by ethanol gradient (100%>70%>50%>20%; v/v) followed by complete rehydration by water. […]

SMILES | H&E staining: size and color intensities of tumor cells | apoptosis in TNBC tumor (TUNEL staining) | Ki-67 immunoreactivity in tumor parenchyma
O=C(O)CCC(=O)NCc1csc2ccc(Cl)cc12 [SIM-1, 4-[(5-chloro-1-benzothiophen-3-yl)methylamino]-4-oxobutanoic acid] | strongly reduced the size and color intensities of cells | weakly induced apoptosis | strong reduction
CCOC(=O)c1c(NC(C)=O)sc2c(Cl)c(/C=N/O)ccc12 [SIM-2, ethyl 2-acetamido-7-chloro-6-(hydroxyiminomethyl)-1-benzothiophene-3-carboxylate] | strongly reduced the size and color intensities of cells | weakly induced apoptosis | strong reduction
